Source: ChEMBL document CHEMBL3885881, “DrugMatrix”

Species on record: Rattus norvegicus
Assay: DrugMatrix - Regimen: Daily Repeat
Format: toxicity, organism-based, Sprague-Dawley
Design: regimen Daily Repeat, gender Male, age 6-8 weeks
Conditions: in vivo, po, 1200 mg/kg, route oral GAVAGE, dose level High, vehicle .5 % CMC; for ABSOLUTE BASOPHIL / ABSOLUTE EOSINOPHIL / ABSOLUTE LYMPHOCYTE / ABSOLUTE MONOCYTE / ABSOLUTE SEGMENTED NEUTROPHIL / BASOPHIL / EOSINOPHIL / ERYTHROCYTE COUNT / HEMATOCRIT / HEMOGLOBIN / LEUKOCYTE COUNT / LYMPHOCYTE / MEAN CORPUSCULAR HEMOGLOBIN / MEAN CORPUSCULAR HEMOGLOBIN CONCENTRATION / MEAN CORPUSCULAR VOLUME / MONOCYTE / NEUTROPHIL / NUCLEATED RED BLOOD CELLS / PLATELET COUNT: tissue Blood; for ALANINE AMINOTRANSFERASE / ALBUMIN / ALKALINE PHOSPHATASE / ASPARTATE AMINOTRANSFERASE / BLOOD UREA NITROGEN / CARBON DIOXIDE / CHLORIDE / CHOLESTEROL / CREATININE / GLUCOSE / LACTATE DEHYDROGENASE / LIPASE / PHOSPHORUS / POTASSIUM / SODIUM / TOTAL BILIRUBIN / TOTAL PROTEIN / URIC ACID: tissue Plasma

Which “ABSOLUTE BASOPHIL” value (120 h, time 5 day) does the source give for `Nc1ccc(Cl)cc1[N+](=O)[O-]` [4-CHLORO-2-NITROANILINE] here?
The value was 0 CELLS/uL.

What about the “ABSOLUTE EOSINOPHIL” value (120 h, time 5 day) of the same molecule?
The value was 100.67 CELLS/uL.

And the “ABSOLUTE LYMPHOCYTE” value (120 h, time 5 day)?
Its value is 9384 CELLS/uL.

And the “ABSOLUTE MONOCYTE” value (120 h, time 5 day)?
The value was 183 CELLS/uL.

What about the “ABSOLUTE SEGMENTED NEUTROPHIL” value (120 h, time 5 day) of the same molecule?
The value was 1099 CELLS/uL.

What about the BASOPHIL (120 h, time 5 day) of the same molecule?
Its BASOPHIL is 0%.

What about the EOSINOPHIL (120 h, time 5 day) of the same molecule?
The EOSINOPHIL was 1%.

What about the “ERYTHROCYTE COUNT” value (120 h, time 5 day) of the same molecule?
The value was 6.3 x10E6/uL.

And the HEMATOCRIT (120 h, time 5 day)?
Its HEMATOCRIT is 37.27%.

What about the HEMOGLOBIN (120 h, time 5 day) of the same molecule?
Its HEMOGLOBIN is 13.47 G/DL.

What about the “LEUKOCYTE COUNT” value (120 h, time 5 day) of the same molecule?
The value was 10.77 x10E3/uL.

And the LYMPHOCYTE (120 h, time 5 day)?
Its LYMPHOCYTE is 87%.

And the “MEAN CORPUSCULAR HEMOGLOBIN” value (120 h, time 5 day)?
The value was 21.43 pg.

What about the “MEAN CORPUSCULAR HEMOGLOBIN CONCENTRATION” value (120 h, time 5 day) of the same molecule?
Its value is 36.17 G/DL.

What about the “MEAN CORPUSCULAR VOLUME” value (120 h, time 5 day) of the same molecule?
Its value is 59.17 fL.

What about the MONOCYTE (120 h, time 5 day) of the same molecule?
The MONOCYTE was 1.67%.

And the NEUTROPHIL (120 h, time 5 day)?
Its NEUTROPHIL is 10.33%.

What about the “NUCLEATED RED BLOOD CELLS” value (120 h, time 5 day) of the same molecule?
Its value is 0 /100WBC.

And the “PLATELET COUNT” value (120 h, time 5 day)?
Its value is 947 x10E3/uL.

And the “ALANINE AMINOTRANSFERASE” value (120 h, time 5 day)?
The value was 49 u/L.

And the ALBUMIN (120 h, time 5 day)?
The ALBUMIN was 4.1 G/DL.

What about the “ALKALINE PHOSPHATASE” value (120 h, time 5 day) of the same molecule?
The value was 387 u/L.

And the “ASPARTATE AMINOTRANSFERASE” value (120 h, time 5 day)?
The value was 69 u/L.

What about the “BLOOD UREA NITROGEN” value (120 h, time 5 day) of the same molecule?
Its value is 12.67 mg/dL.

And the “CARBON DIOXIDE” value (120 h, time 5 day)?
Its value is 31 mmol/L.

And the CHLORIDE (120 h, time 5 day)?
The CHLORIDE was 102.67 MEQ/L.

And the CHOLESTEROL (120 h, time 5 day)?
The CHOLESTEROL was 97.33 mg/dL.

And the CREATININE (120 h, time 5 day)?
The CREATININE was 0.18 mg/dL.

What about the GLUCOSE (120 h, time 5 day) of the same molecule?
Its GLUCOSE is 126.33 mg/dL.

What about the “LACTATE DEHYDROGENASE” value (120 h, time 5 day) of the same molecule?
The value was 87 u/L.

What about the LIPASE (120 h, time 5 day) of the same molecule?
The LIPASE was 10 u/L.

And the PHOSPHORUS (120 h, time 5 day)?
The PHOSPHORUS was 12.2 mg/dL.

What about the POTASSIUM (120 h, time 5 day) of the same molecule?
The POTASSIUM was 7.1 MEQ/L.

What about the SODIUM (120 h, time 5 day) of the same molecule?
Its SODIUM is 147.03 MEQ/L.

What about the “TOTAL BILIRUBIN” value (120 h, time 5 day) of the same molecule?
Its value is 0.23 mg/dL.

And the “TOTAL PROTEIN” value (120 h, time 5 day)?
Its value is 6.2 G/DL.

And the “URIC ACID” value (120 h, time 5 day)?
The value was 1.5 mg/dL.

And the “ABSOLUTE BASOPHIL” value ([…], time 14 day)?
The value was 0 CELLS/uL.

What about the “ABSOLUTE EOSINOPHIL” value ([…], time 14 day) of the same molecule?
The value was 305.4 CELLS/uL.

And the “ABSOLUTE LYMPHOCYTE” value ([…], time 14 day)?
Its value is 16745.4 CELLS/uL.

What about the “ABSOLUTE MONOCYTE” value ([…], time 14 day) of the same molecule?
Its value is 700 CELLS/uL.

And the “ABSOLUTE SEGMENTED NEUTROPHIL” value ([…], time 14 day)?
The value was 2009.2 CELLS/uL.

And the BASOPHIL ([…], time 14 day)?
The BASOPHIL was 0%.

What about the EOSINOPHIL ([…], time 14 day) of the same molecule?
The EOSINOPHIL was 1.6%.

And the “ERYTHROCYTE COUNT” value ([…], time 14 day)?
The value was 6.12 x10E6/uL.

And the HEMATOCRIT ([…], time 14 day)?
Its HEMATOCRIT is 34.88%.

What about the HEMOGLOBIN ([…], time 14 day) of the same molecule?
The HEMOGLOBIN was 12.64 G/DL.

What about the “LEUKOCYTE COUNT” value ([…], time 14 day) of the same molecule?
Its value is 19.76 x10E3/uL.

And the LYMPHOCYTE ([…], time 14 day)?
The LYMPHOCYTE was 84.4%.

And the “MEAN CORPUSCULAR HEMOGLOBIN” value ([…], time 14 day)?
Its value is 20.64 pg.

What about the “MEAN CORPUSCULAR HEMOGLOBIN CONCENTRATION” value ([…], time 14 day) of the same molecule?
Its value is 36.24 G/DL.

What about the “MEAN CORPUSCULAR VOLUME” value ([…], time 14 day) of the same molecule?
Its value is 56.98 fL.

And the MONOCYTE ([…], time 14 day)?
The MONOCYTE was 3.4%.

And the NEUTROPHIL ([…], time 14 day)?
The NEUTROPHIL was 10.6%.

And the “NUCLEATED RED BLOOD CELLS” value ([…], time 14 day)?
The value was 0 /100WBC.

And the “PLATELET COUNT” value ([…], time 14 day)?
Its value is 1103.4 x10E3/uL.

What about the “ALANINE AMINOTRANSFERASE” value ([…], time 14 day) of the same molecule?
The value was 58.8 u/L.

And the ALBUMIN ([…], time 14 day)?
Its ALBUMIN is 4.18 G/DL.

What about the “ALKALINE PHOSPHATASE” value ([…], time 14 day) of the same molecule?
The value was 347.4 u/L.

What about the “ASPARTATE AMINOTRANSFERASE” value ([…], time 14 day) of the same molecule?
Its value is 113.2 u/L.

What about the “BLOOD UREA NITROGEN” value ([…], time 14 day) of the same molecule?
The value was 20 mg/dL.

What about the “CARBON DIOXIDE” value ([…], time 14 day) of the same molecule?
The value was 28 mmol/L.

And the CHLORIDE ([…], time 14 day)?
The CHLORIDE was 100.8 MEQ/L.

What about the CHOLESTEROL ([…], time 14 day) of the same molecule?
Its CHOLESTEROL is 80.8 mg/dL.

What about the CREATININE ([…], time 14 day) of the same molecule?
The CREATININE was 0.27 mg/dL.

And the GLUCOSE ([…], time 14 day)?
The GLUCOSE was 164.4 mg/dL.

What about the “LACTATE DEHYDROGENASE” value ([…], time 14 day) of the same molecule?
The value was 192 u/L.

And the LIPASE ([…], time 14 day)?
The LIPASE was 10.8 u/L.

What about the PHOSPHORUS ([…], time 14 day) of the same molecule?
Its PHOSPHORUS is 12.48 mg/dL.

And the POTASSIUM ([…], time 14 day)?
The POTASSIUM was 6.05 MEQ/L.

What about the SODIUM ([…], time 14 day) of the same molecule?
Its SODIUM is 146.34 MEQ/L.

What about the “TOTAL BILIRUBIN” value ([…], time 14 day) of the same molecule?
Its value is 0.3 mg/dL.

What about the “TOTAL PROTEIN” value ([…], time 14 day) of the same molecule?
The value was 6.3 G/DL.

What about the “URIC ACID” value ([…], time 14 day) of the same molecule?
Its value is 1.32 mg/dL.
